Measured values from patent US20260364080A1, “PYRAZOLO-PYRIMIDINONE COMPOUNDS FOR USE IN METHODS OF INHIBITING WEE1 A KINASE” (Acrivon Therapeutics, Inc., priority 2023, published 2026).
Like-named read-outs stand apart in the source and are kept apart here.

Key:
[1] = molecular target: T1, recombinant human Wee1A kinase (Homo sapiens, UniProt P30291); experiment: Wee1A kinase binding assay (LanthaScreen Eu time-resolved FRET)
T1 construct: full length Wee1 kinase was expressed by baculovirus in insect cells; purchased Invitrogen PV3817; host or cells: insect cells (baculovirus)
Method: This time resolved-FRET binding assay was performed in white 384-well low volume plates (Greiner, cat #784075), at room temperature in kinase buffer A (KBA; Invitrogen cat #PV3189), consisting of 50 mM HEPES-NaOH (pH 7.5), 0.01% Brij-35, 10 mM MgCl2, and 1 mM EGTA. 5 μL of compound (diluted in reaction buffer, to 1% DMSO) were added to various wells in the plate, followed by 5 μL each of recombinant human Wee1A kinase (full length Wee1 kinase was expressed by baculovirus in insect cells using a N-terminal GST tag (MW: 99.1 kDa) (Invitrogen cat #PV3817) and LanthaScreen Eu-anti-GST antibody (Invitrogen, cat #PV5594). After this, 5 μL of kinase tracer 178 (Invitrogen, cat #PV5593) was added to the plate and the plate was incubated for 60 minutes at room temperature. The final assay conditions in each well were: 30 nM tracer 178, 5 nM Wee1A kinase and 2 nM Eu-labeled antibody in total assay volume of 15 μL. An Envision 2104 (Perkin-Elmer) Plate Reader with the following time-resolve fluorescence setting was used for performing LanthaScreen kinase binding assay. • Excitation 320 nm (30 nm bandpass) • Kinase Tracer Emission 665 nm (10 nm bandpass) • LanthaScreen Eu-anti-Tag Antibody Emission 615 nm (10 nm bandpass) • Dichroic Mirror Instrument dependent • Delay Time 100 μs • Integration Time 200 μs
(§1) To calculate the emission ratio, the acceptor/tracer emission ([…]) was divided by the antibody/donor emission ([…]) and the average of duplicate measurement was used for calculations. Data plotting, analysis of binding, and curve fitting was done using Excel add-in XLfit version 5.5.0.5 (IDBS, Guildford, United Kingdom). […] “NT” means not tested.

[2] = molecular target: T2, Myt1 kinase (recombinant PMYT-1) (Homo sapiens, UniProt Q99640); experiment: Myt1 kinase binding assay (LanthaScreen Eu Kinase Binding Assay); settings: 3 nM tracer 178, 2.5 nM PMYT-1, 1 nM Eu-labeled antibody; read-out: Myt1 kinase Binding IC50
T2 construct: full length PMYT-1 was expressed by baculovirus in insect cells; purchased Invitrogen A30984; host or cells: insect cells (baculovirus)
T2 sequence (Q99640 1-499): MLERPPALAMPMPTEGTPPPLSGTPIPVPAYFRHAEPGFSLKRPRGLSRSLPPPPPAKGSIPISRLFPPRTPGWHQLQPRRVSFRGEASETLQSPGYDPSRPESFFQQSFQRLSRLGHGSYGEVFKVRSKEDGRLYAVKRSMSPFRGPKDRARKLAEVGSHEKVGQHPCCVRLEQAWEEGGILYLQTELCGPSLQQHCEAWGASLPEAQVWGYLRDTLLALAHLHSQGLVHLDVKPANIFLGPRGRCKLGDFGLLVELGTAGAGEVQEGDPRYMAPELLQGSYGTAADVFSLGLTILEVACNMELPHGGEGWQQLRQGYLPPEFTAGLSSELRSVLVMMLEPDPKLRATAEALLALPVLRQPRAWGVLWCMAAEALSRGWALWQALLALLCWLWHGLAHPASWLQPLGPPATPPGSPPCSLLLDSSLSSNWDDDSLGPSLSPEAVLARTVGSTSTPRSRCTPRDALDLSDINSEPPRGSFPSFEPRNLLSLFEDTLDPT
Method: as §1
We used a LanthaScreen Europium (Eu) Kinase Binding Assay to determine the binding affinities (IC50) of compounds to Myt1 kinase. […] “NT” designates that the compound was not tested in this assay.

[3] = molecular target: T3, Wee1A kinase (CDK1 Tyr15 phosphorylation in ACHN renal cell carcinoma cells) (Homo sapiens, UniProt P30291); experiment: High-content imaging of pCdk1 Y15, Wee1A kinase target engagement in ACHN cells; assay type: cell-based
T3 construct: pCDK1 Tyr15 immunofluorescence read-out
Method: Each of an ACHN renal cell carcinoma cell line (ATCC) and a DAOY medulloblastoma cell line, and an A427 lung cancer line were cultured in Minimum Essential Medium Eagle supplemented with 10% fetal calf serum (Sigma), 1% Penicillin-Streptomycin and 10 mM HEPES buffer (HyClone). Cell cultures were kept in a humidified incubator at 37 °C and 5% CO2. Cells were routinely tested for Mycoplasma contamination.
For target engagement assessment of Wee1A kinase inhibition, high-content imaging of ACHN renal cell carcinoma cells was used for quantification of CDK1 phosphorylated on tyrosine 15 by immunofluorescence (“IF”). 20,000 cells per well were seeded in tissue culture treated 96 well plates and treated with compounds at concentrations ranging from 7 to 5,000 nM or from 0.3 to 200 nM for 4h. Cells were fixated for 15 minutes in 4% paraformaldehyde solution, washed in PBS and permeabilized using 0.2% Triton X-100. Blocking was performed for 1 h at RT using Blocker FL Fluorescent Blocking Buffer (Thermo Scientific), thereafter cells were incubated with primary antibody (rabbit anti-pCDK1 Y^15, #4539, Cell Signaling Technology) at 4 °C ON. Alexa Fluor Plus 647 labelled goat anti-rabbit (A32733, Thermo Scientific) was used as secondary antibody. After washing in PBS, nuclei were stained with DAPI solution for 10 min at RT, protected from light. Cells were imaged using an ImageXpress Pico automated imaging system and CellReporter Xpress software (Molecular Devices). The percentage of cells with nuclear positivity for pCdk1 Y^15 compared to DMSO control was determined for each well and drug dose response curves and EC50 values were calculated and visualized using GraphPad Prism. Target engagement for Wee1A kinase can also be measured using the same AlphaLISA assay in OVCAR3 cells, an ovarian cancer cell line. NIH:OVCAR-3 (OVCAR3) cells are cultured in RPMI-1640 medium supplemented with 0.01 mg/ml insulin, 20% FBS, 1% Penicillin-Streptomycin and 10 mM HEPES buffer. 14,000 cells per well are seeded into 96 well tissue culture plates in full medium. Twenty-four hours post seeding, cells are treated with compound for 4 hours at concentrations ranging from 0.017 nM to 1000 nM.

[4] = 30 nM tracer 178, 5 nM Wee1A kinase, 2 nM Eu-labeled antibody, 60 minutes at room temperature, read-out: Wee1A kinase Binding IC50
[5] = read-out: CDK1 Tyr15 Phosphorylation EC50, 4 h treatment, nuclear positivity for pCdk1 Y15 vs DMSO control
[6] = 4 h treatment, nuclear positivity for pCdk1 Y15 vs DMSO control, read-out: CDK1 Tyr15 Phosphorylation EC50

T3 sequence (P30291 whole entry): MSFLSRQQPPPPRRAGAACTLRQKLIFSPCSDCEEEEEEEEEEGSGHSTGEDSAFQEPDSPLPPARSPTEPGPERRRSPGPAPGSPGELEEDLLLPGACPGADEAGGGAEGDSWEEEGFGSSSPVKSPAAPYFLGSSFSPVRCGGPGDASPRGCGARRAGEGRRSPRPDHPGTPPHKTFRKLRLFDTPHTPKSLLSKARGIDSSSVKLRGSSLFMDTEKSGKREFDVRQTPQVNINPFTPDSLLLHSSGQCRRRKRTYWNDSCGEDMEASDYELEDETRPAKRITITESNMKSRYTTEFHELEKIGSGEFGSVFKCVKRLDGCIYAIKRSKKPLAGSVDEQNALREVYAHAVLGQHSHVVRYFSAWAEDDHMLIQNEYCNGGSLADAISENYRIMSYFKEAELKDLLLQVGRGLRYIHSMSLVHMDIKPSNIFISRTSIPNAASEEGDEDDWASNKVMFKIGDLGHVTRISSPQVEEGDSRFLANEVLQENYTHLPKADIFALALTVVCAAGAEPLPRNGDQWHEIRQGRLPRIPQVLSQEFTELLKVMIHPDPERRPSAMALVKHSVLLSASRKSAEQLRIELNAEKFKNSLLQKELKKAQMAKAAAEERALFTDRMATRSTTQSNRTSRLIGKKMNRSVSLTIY
T1 sequence (P30291 whole entry): as above

| SMILES | IC50 [1, 4] [nM] | IC50 [2] [nM] | IC50 [1] [nM] | EC50 [3, 5] [nM] | EC50 [3, 6] [nM] |
| --- | --- | --- | --- | --- | --- |
| C=CCn1c(=O)c2cnc(Nc3ccc4c(cnn4C)c3)nc2n1-c1cccc(N(C)C2CCN(C)CC2)c1 [Compound 225, 1-{m-[N-methyl (1-methyl-4-piperidyl)amino]phenyl}-2-allyl-6-(1-methyl-1H-indazol-5-ylamino)-1,2-dihydro-3H-1,2,5,7-tetraazainden-3-one] |  |  | < 10 | > 1000 |  |
| C=CCn1c(=O)c2cnc(Nc3ccc(Cl)cc3)nc2n1-c1cccc(N(C)[C@H]2CCCNC2)n1 [Compound 173, 1-{6-[N—(S)-3-piperidyl-N-methylamino]-2-pyridyl}-2-allyl-6-(p-chlorophenylamino)-1,2-dihydro-3H-1,2,5,7-tetraazainden-3-one] | 10 to 100 | > 500 |  |  |  |
| C=CCn1c(=O)c2cnc(Nc3ccc(Cl)cc3)nc2n1-c1cccc(N[C@H]2CCCN(C)C2)n1 [Compound 167, 1-{6-[(S)-1-methyl-3-piperidylamino]-2-pyridyl}-2-allyl-6-(p-chlorophenylamino)-1,2-dihydro-3H-1,2,5,7-tetraazainden-3-one] | 10 to 100 | 100 to 500 |  |  |  |
| CCn1c(=O)c2cnc(Nc3ccc4c(cnn4C)c3)nc2n1-c1cccc(N(C)C2CCNCC2)n1 [Compound 286, 1-[6-(N-methyl-N-4-piperidylamino)-2-pyridyl]-2-ethyl-6-(1-methyl-1H-indazol-5-ylamino)-1,2-dihydro-3H-1,2,5,7-tetraazainden-3-one] |  |  | < 10 | > 1000 |  |
| C=CCn1c(=O)c2cnc(Nc3cnn(C)c3)nc2n1-c1cccc(OC2CCNCC2)c1 [Compound 224, 2-allyl-6-(1-methyl-4-pyrazolylamino)-1-[m-(4-piperidyloxy)phenyl]-1,2-dihydro-3H-1,2,5,7-tetraazainden-3-one] | < 10 |  |  |  | > 1000 |
| C=CCn1c(=O)c2cnc(Nc3ccc4c(cnn4C)c3)nc2n1-c1cccc(OC2CCN(C)C(C)C2)n1 [Compound 402, rel-2-allyl-1-(6-(((2R,4R)-1,2-dimethylpiperidin-4-yl)oxy)pyridin-2-yl)-6-((1-methyl-1H-indazol-5-yl)amino)-1,2-dihydro-3H-pyrazolo[3,4-d]pyrimidin-3-one] |  |  |  |  | < 100 |
| C=CCn1c(=O)c2cnc(Nc3ccc(OC)nc3)nc2n1-c1cccc(OC2CCNCC2)n1 [Compound 251, 2-allyl-6-(6-methoxy-3-pyridylamino)-1-[6-(4-piperidyloxy)-2-pyridyl]-1,2-dihydro-3H-1,2,5,7-tetraazainden-3-one] | < 10 | 20 to 100 |  |  |  |
| C=CCn1c(=O)c2cnc(Nc3ccc4ncccc4c3)nc2n1-c1cccc(OC2CCN(C)CC2)n1 [Compound 325, 2-allyl-1-[6-(1-methyl-4-piperidyloxy)-2-pyridyl]-6-(6-quinolylamino)-1,2-dihydro-3H-1,2,5,7-tetraazainden-3-one] | < 10 | 20 to 100 |  |  |  |
| C=CCn1c(=O)c2cnc(Nc3cnn(C)c3)nc2n1-c1cccc(O[C@H]2C[C@@H]3CC[C@H]2CN3C)n1 [Compound 294, 6-[(1-methyl-1H-pyrazol-4-yl)amino]-1-(6-{[(1S,4S,5S)-2-methyl-2-azabicyclo[2.2.2]octan-5-yl]oxy}pyridin-2-yl)-2-(prop-2-en-1-yl)-1H,2H,3H-pyrazolo[3,4-d]pyrimidin-3-one] | 10 to 100 |  |  |  |  |
| C=CCn1c(=O)c2cnc(Nc3ccc4c(cnn4C)c3)nc2n1-c1cccc(OC2CCN(C3COC3)CC2)n1 [Compound 349, 2-allyl-6-((1-methyl-1H-indazol-5-yl)amino)-1-(6-((1-(oxetan-3-yl)piperidin-4-yl)oxy)pyridin-2-yl)-1,2-dihydro-3H-pyrazolo[3,4-d]pyrimidin-3-one] | < 10 |  |  |  | < 100 |
| C=CCn1c(=O)c2cnc(Nc3ccnc(C)c3)nc2n1-c1cccc(OC2CCNCC2)c1 [Compound 222, 2-allyl-6-(2-methyl-4-pyridylamino)-1-[m-(4-piperidyloxy)phenyl]-1,2-dihydro-3H-1,2,5,7-tetraazainden-3-one] | < 10 |  |  |  | > 1000 |

More lines, now with the values ahead:

| IC50 [1, 4] [nM] | IC50 [2] [nM] | IC50 [1] [nM] | EC50 [3, 5] [nM] | EC50 [3, 6] [nM] | SMILES |
| --- | --- | --- | --- | --- | --- |
| 10 to 100 | 100 to 500 |  |  |  | C=CCn1c(=O)c2cnc(Nc3ccc(Cl)cc3)nc2n1-c1cccc(O[C@H]2CCCN(C)C2)n1 [Compound 162, 6-[(4-chlorophenyl)amino]-1-(6-{[(3S)-1-methylpiperidin-3-yl]oxy}pyridin-2-yl)-2-(prop-2-en-1-yl)-1H,2H,3H-pyrazolo[3,4-d]pyrimidin-3-one] |
| < 10 |  |  |  | 500 to 1000 | C=CCn1c(=O)c2cnc(Nc3cnn(C)c3)nc2n1-c1cccc(OC2CCN(C)CC2)c1 [Compound 221, 2-allyl-1-[m-(1-methyl-4-piperidyloxy)phenyl]-6-(1-methyl-4-pyrazolylamino)-1,2-dihydro-3H-1,2,5,7-tetraazainden-3-one] |
| < 10 |  |  |  | < 100 | C=CCn1c(=O)c2cnc(Nc3ccc4cnn(C)c4c3)nc2n1-c1cccc(OC2CCNCC2)n1 [Compound 359, 2-allyl-6-((1-methyl-1H-indazol-6-yl)amino)-1-(6-(piperidin-4-yloxy)pyridin-2-yl)-1,2-dihydro-3H-pyrazolo[3,4-d]pyrimidin-3-one] |
| 10 to 100 |  |  |  |  | C=CCn1c(=O)c2cnc(Nc3cnn(C)c3)nc2n1-c1cccc(O[C@@H]2C[C@@H]3CC[C@H]2CN3C)n1 [Compound 295, 6-[(1-methyl-1H-pyrazol-4-yl)amino]-1-(6-{[(1S,4S,5R)-2-methyl-2-azabicyclo[2.2.2]octan-5-yl]oxy}pyridin-2-yl)-2-(prop-2-en-1-yl)-1H,2H,3H-pyrazolo[3,4-d]pyrimidin-3-one] |
| < 10 |  |  |  | 100 to 500 | C=CCn1c(=O)c2cnc(Nc3ccnc(C)c3)nc2n1-c1cccc(OC2CCN(C)CC2)c1 [Compound 219, 2-allyl-1-[m-(1-methyl-4-piperidyloxy)phenyl]-6-(2-methyl-4-pyridylamino)-1,2-dihydro-3H-1,2,5,7-tetraazainden-3-one] |
